Reference: patent US8686178B2, “Derivative of 18β-glycyrrhetinic acid apt to suppress cancer cells” (Kaohsiung Medical University, priority 2011, dated 2014)

Experiments:
NTUB1 = assay: Trial (B): MTT cytotoxicity assay, 72 hours; format: cell-based, human; details: 0-50 μM
Description: (§1) For the sake of proving therapeutic effects of the derivatives of 18β-glycyrrhetinic acid of the present invention, including 10, 11, 13-17 and 21-25, in treating of cancer, human bladder cancer cell line NTUB1, human prostate cancer cell line PC3 cataloged as CRL-1435 (reference to J. Formosan Med. Assoc. 1992; 91:608-13), and immortalized normal human urothelial cells SV-HUC1 cataloged as CRL-9520 are purchased from American Type Culture Collection (ATCC; Rockville, USA) and maintained in a culturing medium respectively till at a preferable density to carry out a serial of trials (comprising trial A to G) for evaluating cytotoxicities of the derivatives of 18β-glycyrrhetinic acid against cancer cells, and mechanisms thereof. […]
(§2) In trial (B), the cell lines of NTUB1, PC3, and SV-HUC1 are prepared in 96-well plates and co-incubated with the compounds 21, 23 or 25 in various concentrations of 0, 0.3, 1, 3, 5, 10, 30 and 50 μM, to analyze cytotoxic effects against either cancer cell or normal cells via a modified 3-[4,5-dimethylthiazol-2-yl]-2,5-diphenyltetrazolium bromide (MTT, Sigma Chemical Co.) assay. […] At co-incubation, 50 μL of MTT (2 mg/mL in PB) is added to each well to react for 3 hours, followed by centrifugating the 96-well plates at 1000 g for 10 min to remove supernatant, adding 150 μL DMSO in each well of the 96-well plates, and determining viability rates of the NTUB1, PC3, and SV-HUC1 cells separately by an absorbance spectrometry at 540 nm with a MRX (DYNEXCO) microplate reader.

[1] = test system: human bladder cancer cell line NTUB1; assay: Trial (A): cytotoxic effect, IC50 by median-effect analysis; format: cell-based; details: NTUB1 cells; for cytotoxic effect against cancer cell: with reference to TABLE 2; for IC50: mean ± SD
Description: For the sake of proving therapeutic effects of the derivatives of 18β-glycyrrhetinic acid of the present invention, including 10, 11, 13-17 and 21-25, in treating of cancer, human bladder cancer cell line NTUB1, human prostate cancer cell line PC3 cataloged as CRL-1435 (reference to J. Formosan Med. Assoc. 1992; 91:608-13), and immortalized normal human urothelial cells SV-HUC1 cataloged as CRL-9520 are purchased from American Type Culture Collection (ATCC; Rockville, USA) and maintained in a culturing medium respectively till at a preferable density to carry out a serial of trials (comprising trial A to G) for evaluating cytotoxicities of the derivatives of 18β-glycyrrhetinic acid against cancer cells, and mechanisms thereof.
In the present invention, the NTUB1 and the PC3 is but not limit to be maintained in RPMI 1640 medium supplemented 10% fetal bovine serum (FBS), 100 unit/mL penicillin-G, 100 μg/mL streptomycin, and 2 mM L-glutamine, yet the SV-HUC1 is maintained in F12 medium supplemented with 10% fetal bovine serum (FBS), 100 unit/mL penicillin-G, 100 μg/mL streptomycin, and 2 mM L-glutamine, culturing at 37° C. in a humidified atmosphere containing 5% CO2 till at a density of 70% per well, followed by repeatedly suspending cells in each well with an ethylene diamine tetra-acetic acid buffer (EDTA buffer; Merck) and counting cell numbers.
In the present invention, the IC50 values of each group are presented as mean±standard deviation (SD).

[2] = test system: immortalized normal human urothelial cells SV-HUC1; assay: Trial (B): MTT assay on normal cells, 72 hours; format: cell-based; details: 0-50 μM
Description: as §1, §2

[3] = test system: human prostate cancer cell line PC3; assay: Trial (B): MTT cytotoxicity assay, 72 hours; format: cell-based; details: 0-50 μM
Description: as §1, §2

NTUB1 cells [4] = assay: Trial (E): cell cycle progression by flow cytometry (propidium iodide); format: cell-based, human; parameters: Sub-G1 / G1: unit not given here; details: 24 hours, NTUB1
Experimental: In order to determine a relationship between the derivatives of 18β-glycyrrhetinic acid of the present invention and cell cycle arrest, trial (E) is carried out by analyzing cell cycle progression by flow cytometry. […] After that, cell cycle progression of each group is determined respectively by incubating with 50 μg/mL propidium iodide (Sigma, Co) and 50 μg/mL RNase A (Sigma, Co) in PBS at room temperature for 30 min, and analyzing by FACScan flow cytometer and Cell Quest sofeware.

p-p53 (Ser15) = assay: Trial (G): expression of p53 / p-p53 by Western blot; format: cell-based, human; details: NAC with 50 μM 25, 24 hours, NTUB1
Experimental: In trial (G), expression of p53 is monitored via Western blot analysis in accordance with a journal article published by Son et al., at 2010 in Toxicol. Appl. Pharmacol., in which overproduction ROS induced p53 suppression is observed.
Referring to TABLE 7, the NTUB1 cells at a density of 8×10^5 cells/ml are prepared and assigned into 9 groups, including G1-1 to G1-5 and G2-1 to G2-4, to incubate in various medium for 24 hours, followed by harvesting in trypsinization, resuspending in PBS till at a suitable density and collecting the NTUB1 cells of each group respectively.
Next, the NTUB1 cells of each group are further diluted with equal volume of 2× sample buffer, boiled for 10 minutes twice to denature protein therein, and analyzed by SDS-PAGE. After that, proteins on SDS-PAGE datum are transferred to nitrocellulose membranes (Millipore, Billerica, Mass., USA) using a semi-dry blotter, followed by blocking with 5% (w/v) skimmed milk in TBST buffer (100 mM Tris-HCl (pH 7.5), 150 mM NaCl and 0.1% Tween-20), incubating with specific antibodies [including antibodies specific for b-acctin (NB600-501), p-p53 (Ser15) (9284) and p53 (DO1)]. at 4° C. overnight, washing with TBST buffer again and incubated with secondary antibody at room temperature. Finally, western data of each group are visualized on Fuji SuperRX film. […]

NTUB1 cells [5] = assay: Trial (D): production of reactive oxygen species by flow cytometry (DCF); format: cell-based, human; details: 24 hours
Experimental: In trial (D), production of reactive oxygen species (ROS) is analyzed by flow cytometry, since the levels of ROS play an important role in apoptosis.
Referring to TABLE 4, the NTUB1 cells at a density of 8×10^5 cells/ml are prepared and assigned into 5 groups, including D1 to D5, to incubate in various medium for 24 hours. Next, 10 μM of 2,7-dichlorodihydrofluorescein diacetate (H2DCFHDA; Molecular Probes, Eugene, Oreg.) is added to the NTUB1 cells of each group 30 minutes prior than harvest, followed by collecting the NTUB1 cells of each group respectively and washing with PBS buffer. With such arrangement, the 2,7-dichlorodihydrofluorescein diacetate will penetrate into cells, interact with esterase, and degrade to 2,7-dichlorofluorescein (DCF) having green fluorescein, which can be determined by flow cytometer. In trial (D), green fluorescence of intracellular DCF in each group are analyzed immediately by FACScan flow cytometer (Becton Dickinson) at a wavelength of 525 nm.

Compound | cytotoxic effect (survival ratio, FIGS. 4-6) (NTUB1) | cytotoxic effect against cancer cell [1] | IC50 [1] [µM] | effect on growth of normal cells (survival ratio, FIGS. 4-6) [2] | cytotoxic effect (survival ratio, FIGS. 4-6) [3] | other results
C=C(C)[C@@H]1CC[C@]2(C)[C@H](C(=O)C=C3[C@@H]4C[C@@](C)(C(=O)NC(C)C)CC[C@]4(C)CC[C@]32C)[C@@]1(C)CCC(=O)OCC [Compound 21, 30-isopropyl carbamoyl-11-oxo-18β-3,4-seco-olean-4(23),12-dien 3-ethyl ester] | cytotoxic effects against to the cancer cells in a dose-dependent manner, particularly in against to NTUB1 cell | significantly suppress the growth of cancer cells with a lower concentrate | 19.4 ± 19.2 | enhance the growth of SV-HUC1 cells | cytotoxic effects against to the cancer cells in a dose-dependent manner | –
C=C(C)[C@@H]1CC[C@]2(C)[C@H](C(=O)C=C3[C@@H]4C[C@@](C)(C(=O)NC(C)C)CC[C@]4(C)CC[C@]32C)[C@@]1(C)CCC(=O)NCC [Compound 23] | cytotoxic effects against to the cancer cells in a dose-dependent manner, particularly in against to NTUB1 cell | significantly suppress the growth of cancer cells with a lower concentrate | 12.8 ± 2.1 | enhance the growth of SV-HUC1 cells | cytotoxic effects against to the cancer cells in a dose-dependent manner | –
CC(=O)N[C@@H](CS)C(=O)O [NAC, reference compound] | – | – | – | – | – | G1 (NTUB1 cells [4]; 1 mM): 44.41; S (NTUB1 cells [4]; 1 mM): 29.18; Sub-G1 (NTUB1 cells [4]; 1 mM): 2.66; G2/M (NTUB1 cells [4]): 20.18; effect on p53 phosphorylation stimulated by 25 (Western blot, FIG. 10) (p-p53 (Ser15)): prevents p53 phosphorylation that stimulated by 25; ROS (%) (NTUB1 cells [5]; 1 mM): 26.1%
N.N.[Cl][Pt][Cl] [cisplatin, cis-diamminedichloroplatinum II, reference compound] | – | – | 3.27 ± 0.1 | – | – | G1 (NTUB1 cells [4]; 20 μM): 60.91; G2/M (NTUB1 cells [4]; 20 μM): 6.65; S (NTUB1 cells [4]; 20 μM): 22.09; Sub-G1 (NTUB1 cells [4]; 20 μM): 10.35; ROS (%) (NTUB1 cells [5]; 20 μM): 63.1%
